This passage reports inhibition and IC50 results from patent publication US10344024B2, “Compounds as ROR gamma modulators” (Glenmark Pharmaceuticals S.A., priority 2015, dated 2019).

The experiment addresses T1, GST-tagged ROR gamma ligand binding domain (LBD) (Homo sapiens, UniProt P51449).
T1 construct: purchased Invitrogen
T1 sequence (P51449 269-508 limits assumed): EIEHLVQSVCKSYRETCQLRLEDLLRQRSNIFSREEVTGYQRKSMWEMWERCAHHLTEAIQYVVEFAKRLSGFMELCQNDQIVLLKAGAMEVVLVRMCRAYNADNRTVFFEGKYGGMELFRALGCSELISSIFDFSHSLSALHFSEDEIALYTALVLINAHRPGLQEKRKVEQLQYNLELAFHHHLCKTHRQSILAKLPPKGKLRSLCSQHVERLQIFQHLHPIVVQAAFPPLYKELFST
Nature of the experiment: TR-FRET assay for ROR gamma (LanthaScreen co-activator peptide recruitment). The format is biochemical. Conditions: for inhibition at 1 µM: compound concentration 1 μM; for inhibition at 1 µM / inhibition at 10 µM: TR-FRET ratio 520/495, percent of control; for inhibition at 10 µM: compound concentration 10 μM; for IC50: from dose response curve, nonlinear regression, read-out: IC50 range. From the text: The compounds described herein were screened for ROR gamma modulator activity using the TR-FRET assay (LanthaScreen™ available from Invitrogen of Carlsbad, Calif.) as described in JBC 2011, 286, 26: 22707-10; and Drug Metabolism and Disposition 2009, 37, 10: 2069-78.
Binding of the co-activator peptide, causes an increase in the TR-FRET signal while binding of an antagonist decreases the recruitment of the co-activator peptide, causing a decrease in the TR-FRET signal compared to control with no compound. The assay was performed using a two-step procedure, pre-incubation step with the compound followed by the detection step on addition of the anti-GST tagged terbium (Tb) and fluorescein tagged fluorophores as the acceptor.
Test compounds or reference compounds such as T0901317 (Calbiochem) were dissolved in dimethylsulfoxide (DMSO) to prepare 10.0 mM stock solutions and diluted to the desired concentration. The final concentration of DMSO in the reaction was 4% (v/v). The assay mixture was prepared by mixing 10 nM of the GST-tagged ROR gamma ligand binding domain (LBD) in the assay buffer containing 25 mM HEPES (pH 7.4), 100 mM NaCl, 5 mM DTT and 0.01% BSA with or without the desired concentration of the compound. The reaction was incubated at 22° C. for 1 hour. The pre-incubation step was terminated by addition of the detection mixture containing 300 nM Fluorescein-D22 co-activator peptide and 10 nM lantha screen Tb-anti GST antibody into the reaction mixture.
After shaking for 5 minutes the reaction was further incubated for 1 hour at room temperature and read at 4° C. on an Infinite F500 reader as per the kit instructions (Invitrogen). The inhibition of test compound was calculated based on the TR-FRET ratio of 520/495. The activity was calculated as a percent of control reaction. IC50 values were calculated from dose response curve by nonlinear regression analysis using GraphPad Prism software.
Background: TR-FRET usually uses a lanthanide donor and a delayed reading to cut background.

As usually defined, the inhibition is the change of the read-out against control, counted positive when it falls. As usually defined, the IC50 is the concentration that gives 50% inhibition. In the case of `CCC(F)(F)c1ccc(CC(=O)Nc2ccc(-c3nccnc3-c3ccc(Cl)cc3)cc2)cc1` [Example 1, N-(4-(3-(4-chlorophenyl)pyrazin-2-yl)phenyl)-2-(4-(1,1-difluoropropyl)phenyl) acetamide], the inhibition at 1 µM stood at 80.9%, the inhibition at 10 µM was determined as 81.5% and the IC50 was below 50 nM.

Turning to `CC(O)C(F)(F)c1ccc(CC(=O)Nc2ccc(-c3nccnc3-c3ccc(Cl)cc3)cc2)cc1` (stereo not shown) [Example 2, N-(4-(3-(4-chlorophenyl)pyrazin-2-yl)phenyl)-2-(4-(1,1-difluoro-2-hydroxypropyl)phenyl)acetamide], the inhibition at 1 µM came to 76.1%, the inhibition at 10 µM was determined as 82.7% and the 50% inhibitory concentration (IC50) was below 50 nM.

In the case of `COCC(F)(F)c1ccc(CC(=O)Nc2ccc(-c3nccnc3-c3ccc(Cl)cc3)cc2)cc1` [Example 3, N-(4-(3-(4-Chlorophenyl)pyrazin-2-yl)phenyl)-2-(4-(1,1-difluoro-2-methoxyethyl)phenyl)acetamide], the inhibition at 1 µM is 74%, the inhibition at 10 µM came out at 84.8% and the half-inhibitory concentration (IC50) lay within 50 to 100 nM.

On to `CC(O)C(F)(F)c1ccc(CC(=O)Nc2ccc(-c3nccnc3-c3cccc(Cl)c3)cc2)cc1` (stereo not shown) [Example 4, N-(4-(3-(3-Chlorophenyl)pyrazin-2-yl)phenyl)-2-(4-(1,1-difluoro-2-hydroxypropyl)phenyl)acetamide], for which the inhibition at 1 µM was determined as 60.7%, the inhibition at 10 µM was found to be 77.8% and the IC50 is above 500 nM.

Consider `CCC(F)(F)c1ccc(CC(=O)Nc2ccc(-c3nccnc3-c3ccccc3Cl)cc2)cc1` [Example 5, N-(4-(3-(2-Chlorophenyl)pyrazin-2-yl)phenyl)-2-(4-(1,1-difluoropropyl)phenyl)acetamide], for which the inhibition at 1 µM came out at 81.5%, the inhibition at 10 µM was found to be 84.4% and the half-inhibitory concentration (IC50) was below 50 nM.

For `CCC(F)(F)c1ccc(CC(=O)Nc2ccc(-c3nccnc3-c3ccc(Cl)cc3F)cc2)cc1` [Example 6, N-(4-(3-(4-Chloro-2-fluorophenyl)pyrazin-2-yl)phenyl)-2-(4-(1,1-difluoropropyl)phenyl)acetamide], the inhibition at 1 µM was 87.4%, the inhibition at 10 µM is 86.4% and the half-maximal inhibitory concentration (IC50) is below 50 nM.

On to `CCC(F)(F)c1ccc(CC(=O)Nc2ccc(-c3ncccc3-c3ccc(Cl)cc3)cc2)cc1` [Example 7, N-(4-(3-(4-Chlorophenyl)pyridin-2-yl)phenyl)-2-(4-(1,1-difluoropropyl)phenyl)acetamide], for which the inhibition at 1 µM was determined as 83%, the inhibition at 10 µM was determined as 86.2% and the IC50 was below 50 nM.

For the compound `CC(O)C(F)(F)c1ccc(CC(=O)Nc2ccc(-c3nccnc3-c3ccc(F)cc3)cc2)cc1` (stereo not shown) [Example 8, 2-(4-(1,1-Difluoro-2-hydroxypropyl)phenyl)-N-(4-(3-(4-fluorophenyl)pyrazin-2-yl)phenyl)acetamide], the inhibition at 1 µM was 73.6%, the inhibition at 10 µM was 85.3% and the half-inhibitory concentration (IC50) fell in the range of 100 to 500 nM.

In the case of `CC(O)C(F)(F)c1ccc(CC(=O)Nc2ccc(-c3nccnc3-c3ccc(F)c(F)c3)cc2)cc1` (stereo not shown) [Example 9, 2-(4-(1,1-Difluoro-2-hydroxypropyl)phenyl)-N-(4-(3-(3,4-difluorophenyl)pyrazin-2-yl)phenyl)acetamide], the inhibition at 1 µM was 55.2%, the inhibition at 10 µM came to 72.1% and the IC50 was above 500 nM.

For the compound `CCC(F)(F)c1ccc(CC(=O)Nc2ccc(-c3nccnc3-c3ccc(F)cc3F)cc2)cc1` [Example 10, N-(4-(3-(2,4-Difluorophenyl)pyrazin-2-yl)phenyl)-2-(4-(1,1-difluoropropyl)phenyl)acetamide], the inhibition at 1 µM came to 78.2%, the inhibition at 10 µM is 83% and the IC50 was 50 to 100 nM.

For the compound `CCC(F)(F)c1ccc(CC(=O)Nc2ccc(-c3nccnc3-c3ccccc3F)cc2)cc1` [Example 11, 2-(4-(1,1-Difluoropropyl)phenyl)-N-(4-(3-(2-fluorophenyl)pyrazin-2-yl)phenyl)acetamide], the inhibition at 1 µM is 78.8%, the inhibition at 10 µM is 83.8% and the IC50 is below 50 nM.

As to `CCC(F)(F)c1ccc(CC(=O)Nc2ccc(-c3nccnc3-c3ccc(C(F)(F)F)cc3)cc2)cc1` [Example 12, 2-(4-(1,1-Difluoropropyl)phenyl)-N-(4-(3-(4-(trifluoromethyl)phenyl)pyrazin-2-yl)phenyl)acetamide], the inhibition at 1 µM came to 85.6%, the inhibition at 10 µM was found to be 83% and the IC50 is below 50 nM.

In the case of `CCC(F)(F)c1ccc(CC(=O)Nc2ccc(-c3nccnc3-c3ccc(C)cc3)cc2)cc1` [Example 13, 2-(4-(1,1-Difluoropropyl)phenyl)-N-(4-(3-(p-tolyl)pyrazin-2-yl)phenyl)acetamide], the inhibition at 1 µM is 82.7%, the inhibition at 10 µM was determined as 84.4% and the IC50 was below 50 nM.

Take `CCC(F)(F)c1ccc(CC(=O)Nc2ccc(-c3ncccc3-c3ccc(F)cc3)cc2)cc1` [Example 14, 2-(4-(1,1-Difluoropropyl)phenyl)-N-(4-(3-(4-fluorophenyl)pyridin-2-yl)phenyl)acetamide]: the inhibition at 1 µM stood at 74.4%, the inhibition at 10 µM came out at 83.8% and the IC50 lay in the range of 100 to 500 nM.

In the case of `CCC(F)(F)c1ccc(CC(=O)Nc2ccc(-c3nccnc3-c3ccccc3)cc2)cc1` [Example 15, 2-(4-(1,1-Difluoropropyl)phenyl)-N-(4-(3-phenylpyrazin-2-yl)phenyl)acetamide], the inhibition at 1 µM was found to be 72.2%, the inhibition at 10 µM came out at 80.6% and the half-maximal inhibitory concentration (IC50) fell in the range of 100 to 500 nM.

In the case of `CCC(F)(F)c1ccc(CC(=O)Nc2ccc(-c3nccnc3-c3ccc(C#N)cc3)cc2)cc1` [Example 16, N-(4-(3-(4-Cyanophenyl)pyrazin-2-yl)phenyl)-2-(4-(1,1-difluoropropyl)phenyl)acetamide], the inhibition at 1 µM came out at 69.9% and the inhibition at 10 µM is 60.5%.

Consider `CCC(F)(F)c1ccc(CC(=O)Nc2ccc(-c3nccnc3-c3ccncc3)cc2)cc1` [Example 17, 2-(4-(1,1-Difluoropropyl)phenyl)-N-(4-(3-(pyridin-4-yl)pyrazin-2-yl)phenyl)acetamide], for which the inhibition at 1 µM came out at 60.5% and the inhibition at 10 µM turned out to be 74.4%.

As for `CC(O)C(F)(F)c1ccc(CC(=O)Nc2ccc(-c3nccnc3N3CCC(F)(F)CC3)cc2)cc1` (stereo not shown) [Example 18, 2-(4-(1,1-Difluoro-2-hydroxypropyl)phenyl)-N-(4-(3-(4,4-difluoropiperidin-1-yl)pyrazin-2-yl)phenyl)acetamide], the inhibition at 1 µM stood at 32.4% and the inhibition at 10 µM came to 71.2%.

Turning to `CC(O)C(F)(F)c1ccc(CC(=O)Nc2ccc(-c3nccnc3N3CCOCC3)cc2)cc1` (stereo not shown) [Example 19, 2-(4-(1,1-Difluoro-2-hydroxypropyl)phenyl)-N-(4-(3-morpholinopyrazin-2-yl)phenyl)acetamide], the inhibition at 1 µM amounted to 42.2% and the inhibition at 10 µM worked out at 48.8%.

Consider `CCC(F)(F)c1ccc(CC(=O)Nc2ccc(-n3nc(C)cc3-c3ccc(F)cc3)cc2)cc1` [Example 20, 2-(4-(1,1-Difluoropropyl)phenyl)-N-(4-(5-(4-fluorophenyl)-3-methyl-1H-pyrazol-1-yl)phenyl)acetamide], for which the inhibition at 1 µM was 65.5% and the inhibition at 10 µM came out at 78%.

As for `CCC(F)(F)c1ccc(CC(=O)Nc2ccc(-c3cnn(C(C)(C)C)c3-c3ccc(F)cc3)cc2)cc1` [Example 21, N-(4-(1-(tert-Butyl)-5-(4-fluorophenyl)-1H-pyrazol-4-yl)phenyl)-2-(4-(1,1-difluoropropyl)phenyl)acetamide], the inhibition at 1 µM amounted to 37.4% and the inhibition at 10 µM was found to be 38.3%.

For `CC(O)C(F)(F)c1ccc(CC(=O)Nc2ccc(-c3cnn(C(C)(C)C)c3-c3ccc(F)cc3)cc2)cc1` (stereo not shown) [Example 22, N-(4-(1-(tert-Butyl)-5-(4-fluorophenyl)-1H-pyrazol-4-yl)phenyl)-2-(4-(1,1-difluoro-2-hydroxypropyl)phenyl)acetamide], the inhibition at 1 µM was found to be 46.7% and the inhibition at 10 µM worked out at 56.2%.

For `CCC(F)(F)c1ccc(CC(=O)Nc2ccc(-c3nccnc3-c3cnn(C)c3)cc2)cc1` [Example 23, 2-(4-(1,1-Difluoropropyl)phenyl)-N-(4-(3-(1-methyl-1H-pyrazol-4-yl)pyrazin-2-y1)phenyl)acetamide], the inhibition at 1 µM was 36.6% and the inhibition at 10 µM is 68.6%.
